ChEMBL document CHEMBL2424533, “Design and regioselective synthesis of trifluoromethylquinolone derivatives as potent antimicrobial agents” (2013)
≈ marks a conversion by molar mass, not a printed value. Calls of active or inactive are those of the source. The rule behind the calls is not given here.

Legend:
[1] = test system: Candida albicans; test: Antimicrobial activity against Candida albicans MTCC 183 at 100 ug/mL after 12 hrs by well diffusion method; type: functional
[2] = test system: Pseudomonas aeruginosa; test: Antimicrobial activity against Pseudomonas aeruginosa MTCC 4673 after 12 hrs by well diffusion method; type: functional; conditions: MTCC 4673, 12 h
[3] = test system: Candida albicans; test: Antimicrobial activity against Candida albicans MTCC 183 at 50 ug/mL after 12 hrs by well diffusion method; type: functional
[4] = test system: Mycolicibacterium smegmatis; test: Antimicrobial activity against Mycobacterium smegmatis MTCC 943 at 50 ug/mL after 12 hrs by well diffusion method; type: functional; conditions: for zone of inhibition at 50 µg/mL: MTCC 943, 12 h, read-out: DIZ
[5] = test system: Penicillium chrysogenum; test: Antimicrobial activity against Penicillium chrysogenum MTCC 6795 at 50 to 100 ug/mL after 48 hrs by well diffusion method; type: functional, organism-based
[6] = test system: Pseudomonas aeruginosa; test: Antimicrobial activity against Pseudomonas aeruginosa MTCC 4673 at 50 ug/mL after 12 hrs by well diffusion method; type: functional; conditions: MTCC 4673, 12 h, read-out: DIZ
[7] = test system: Staphylococcus aureus; test: Antimicrobial activity against Staphylococcus aureus MTCC 3160 after 12 hrs by well diffusion method; type: functional; conditions: MTCC 3160, 12 h
[8] = test system: Staphylococcus aureus; test: Antimicrobial activity against Staphylococcus aureus MTCC 3160 at 100 ug/mL after 12 hrs by well diffusion method; type: functional; conditions: for zone of inhibition at 100 µg/mL: MTCC 3160, 12 h, read-out: DIZ
[9] = test system: Pseudomonas aeruginosa; test: Antimicrobial activity against Pseudomonas aeruginosa MTCC 4673 at 100 ug/mL after 12 hrs by well diffusion method; type: functional; conditions: MTCC 4673, 12 h, read-out: DIZ
[10] = test system: Salmonella typhimurium; test: Antimicrobial activity against Salmonella typhimurium MTCC 3732 at 100 ug/mL after 12 hrs by well diffusion method; type: functional; conditions: for diameter of the inhibition zone (DIZ): Salmonella enterica subsp. enterica serovar Typhimurium; for zone of inhibition at 100 µg/mL: Salmonella enterica, MTCC 3732, 12 h, read-out: DIZ
[11] = test system: Salmonella typhimurium; test: Antimicrobial activity against Salmonella typhimurium MTCC 3732 after 12 hrs by well diffusion method; type: functional, Salmonella enterica subsp. enterica serovar Typhimurium; conditions: Salmonella enterica, MTCC 3732, 12 h
[12] = test system: Candida albicans; test: Antimicrobial activity against Candida albicans MTCC 183 after 12 hrs by well diffusion method; type: functional; conditions: MTCC 183, 12 h
[13] = test system: Salmonella typhimurium; test: Antimicrobial activity against Salmonella typhimurium MTCC 3732 at 50 ug/mL after 12 hrs by well diffusion method; type: functional; conditions: for diameter of the inhibition zone (DIZ): Salmonella enterica subsp. enterica serovar Typhimurium; for zone of inhibition at 50 µg/mL: Salmonella enterica, MTCC 3732, 12 h, read-out: DIZ
[14] = test system: Staphylococcus aureus; conditions: MTCC 3160, 50 ug/mL
Description: (§1) Antimicrobial activity against Staphylococcus aureus MTCC 3160 at 50 ug/mL after 12 hrs by well diffusion method

[15] = test system: Mycolicibacterium smegmatis; test: Antimicrobial activity against Mycobacterium smegmatis MTCC 943 at 100 ug/mL after 12 hrs by well diffusion method; type: functional; conditions: for zone of inhibition at 100 µg/mL: MTCC 943, 12 h, read-out: DIZ
[16] = test system: Mycolicibacterium smegmatis; test: Antimicrobial activity against Mycobacterium smegmatis MTCC 943 after 12 hrs by well diffusion method; type: functional; conditions: MTCC 943, 12 h
[17] = test system: Staphylococcus aureus; test: microbe, parasite or virus in culture; conditions: MTCC 3160, 12 h, read-out: DIZ
Description: as §1

MIC [2] [µg/mL]	MIC [7] [µg/mL]	MIC [11] [µg/mL]	MIC [12] [µg/mL]	MIC [16] [µg/mL]	Compound	diameter of the inhibition zone (DIZ) [1]	diameter of the inhibition zone (DIZ) [3]	zone of inhibition at 50 µg/mL [4] [mm]	Activity [5]	zone of inhibition at 50 µg/mL [6] [mm]	diameter of the inhibition zone (DIZ) [8]	zone of inhibition at 100 µg/mL [9] [mm]	diameter of the inhibition zone (DIZ) [10]	diameter of the inhibition zone (DIZ) [13]	DIZ [14]	zone of inhibition at 100 µg/mL [15] [mm]	zone of inhibition at 100 µg/mL [8] [mm]	zone of inhibition at 100 µg/mL [10] [mm]	zone of inhibition at 50 µg/mL [13] [mm]	other results
25 (≈ 64.7 µM)	> 100	> 100	> 100	25 (≈ 64.7 µM)	N#Cc1ccc(Cn2cc(C(=O)NN)c(=O)c3ccc(C(F)(F)F)cc32)cc1	inactive	inactive	8	inactive	8	inactive	8	inactive	inactive	inactive	8				
50 (≈ 113 µM)	100 (≈ 225 µM)	> 100	> 100	50 (≈ 113 µM)	CCOC(=O)c1cn(Cc2ccc(Cl)cc2Cl)c2c(C(F)(F)F)cccc2c1=O	inactive	inactive	7	inactive	7		7	inactive	inactive	inactive	8	9			
25 (≈ 62.4 µM)	> 100	50 (≈ 125 µM)	> 100	50 (≈ 125 µM)	CCOC(=O)c1cn(Cc2ccc(C#N)cc2)c2cc(C(F)(F)F)ccc2c1=O	inactive	inactive	7	inactive	8	inactive	8			inactive			8	7.3	diameter of the inhibition zone (DIZ) [15]: inactive
25 (≈ 64.7 µM)	100 (≈ 259 µM)	> 100	> 100	50 (≈ 129 µM)	N#Cc1ccc(Cn2cc(C(=O)NN)c(=O)c3cccc(C(F)(F)F)c32)cc1	inactive	inactive	7.3	inactive	8		8	inactive	inactive	inactive	8	8			
25 (≈ 58.1 µM)	100 (≈ 232 µM)	25 (≈ 58.1 µM)	> 100	> 100	NNC(=O)c1cn(Cc2ccc(Cl)cc2Cl)c2c(C(F)(F)F)cccc2c1=O	inactive	inactive		inactive	8		8			inactive		9	12	11.3	diameter of the inhibition zone (DIZ) [4]: inactive; diameter of the inhibition zone (DIZ) [15]: inactive
25 (≈ 80.8 µM)	100 (≈ 323 µM)	25 (≈ 80.8 µM)	> 100	25 (≈ 80.8 µM)	C#CCn1cc(C(=O)NN)c(=O)c2ccc(C(F)(F)F)cc21	inactive	inactive	8	inactive	8	inactive	8			inactive	8		8	7.6	

Compound	MIC [2] [µg/mL]	MIC [7] [µg/mL]	MIC [11] [µg/mL]	MIC [12] [µg/mL]	MIC [16] [µg/mL]	diameter of the inhibition zone (DIZ) [1]	diameter of the inhibition zone (DIZ) [3]	zone of inhibition at 50 µg/mL [4] [mm]	Activity [5]	zone of inhibition at 50 µg/mL [6] [mm]	diameter of the inhibition zone (DIZ) [8]	zone of inhibition at 100 µg/mL [9] [mm]	diameter of the inhibition zone (DIZ) [10]	diameter of the inhibition zone (DIZ) [13]	DIZ [14]	zone of inhibition at 100 µg/mL [15] [mm]	zone of inhibition at 100 µg/mL [8] [mm]	zone of inhibition at 100 µg/mL [10] [mm]	zone of inhibition at 50 µg/mL [13] [mm]	other results
O=C(O)c1cn(C2CC2)c2cc(N3CCNCC3)c(F)cc2c1=O [CIPROFLOXACIN]	< 5	< 5	< 5		< 5			29		26.6		30				30	13	37	37	zone of inhibition at 50 µg/mL [17]: 13 mm
